Experimental data as given in PubChem BioAssay (NCI).
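Where inhibition never reached the appropriate level, the endpoint shown equals the highest concentration tested. Otherwise, values were interpolated linearly from a five-concentration, 48-hour dose response in 96-well plates. GI50 is the concentration that inhibits growth by half. The concentration for full growth arrest is given as TGI.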

Legend:
Experiment in all cases: inhibition of tumour cell growth, NCI panel, 48 h
786-0 renal = system: 786-0 renal
HCC-2998 colon = system: HCC-2998 colon
HL-60(TB) leukemia = system: HL-60(TB) leukemia
HOP-92 NSCLC = system: HOP-92 NSCLC
LOX IMVI melanoma = system: LOX IMVI melanoma
MOLT-4 leukemia = system: MOLT-4 leukemia
NCI-H226 lung = system: NCI-H226 lung
NCI-H522 lung = system: NCI-H522 lung
OVCAR-8 ovarian = system: OVCAR-8 ovarian
SN12C renal = system: SN12C renal

CCN1Cc2c(ccc(F)c2C#N)O[C@@H](C)CNC(=O)c2c(N)nn3ccc1nc23
GI50 (786-0 renal): 2.85 µM
TGI (786-0 renal): 15.9 µM
GI50 (HCC-2998 colon): 5.57 µM
TGI (HCC-2998 colon): 20.7 µM
GI50 (HL-60(TB) leukemia): 4.37 µM
TGI (HL-60(TB) leukemia): 40 µM
GI50 (HOP-92 NSCLC): 0.479 µM
TGI (HOP-92 NSCLC): 3.65 µM
GI50 (LOX IMVI melanoma): 1.13 µM
TGI (LOX IMVI melanoma): 6.9 µM
GI50 (MOLT-4 leukemia): 2.75 µM
TGI (MOLT-4 leukemia): 69.2 µM
GI50 (NCI-H226 lung): 3.79 µM
TGI (NCI-H226 lung): 18.6 µM
GI50 (NCI-H522 lung): 5.04 µM
TGI (NCI-H522 lung): 41.3 µM
GI50 (OVCAR-8 ovarian): 4.33 µM
TGI (OVCAR-8 ovarian): > 100 µM
GI50 (SN12C renal): 1.35 µM
TGI (SN12C renal): 18.5 µM

COc1ccc(C(=O)/C=C/c2ccc3c(c2)OCO3)c(OCc2ccccc2)c1
TGI (786-0 renal): > 100 µM
TGI (HCC-2998 colon): > 100 µM
TGI (HL-60(TB) leukemia): 6.47 µM
TGI (HOP-92 NSCLC): > 100 µM
TGI (LOX IMVI melanoma): > 100 µM
TGI (MOLT-4 leukemia): > 26.4 µM
TGI (NCI-H226 lung): > 100 µM
TGI (NCI-H522 lung): > 100 µM
TGI (OVCAR-8 ovarian): > 100 µM
TGI (SN12C renal): > 100 µM

COC(=O)[C@]12CC=C3O[C@@H]4OC5(CCCCC5)O[C@@H]4C3[C@@H]1C(=O)CCC2=O (stereo partly specified)
TGI (786-0 renal): > 100 µM
TGI (HCC-2998 colon): > 100 µM
TGI (HL-60(TB) leukemia): > 100 µM
TGI (HOP-92 NSCLC): > 100 µM
TGI (LOX IMVI melanoma): > 100 µM
TGI (MOLT-4 leukemia): > 100 µM
TGI (NCI-H226 lung): > 100 µM
TGI (NCI-H522 lung): > 100 µM
TGI (OVCAR-8 ovarian): > 100 µM
TGI (SN12C renal): > 100 µM

COc1ccc(S(=O)(=O)Nc2cc(/C=C\c3cc(OC)c(OC)c(OC)c3)ccc2OC)cc1
GI50 (786-0 renal): 0.361 µM
TGI (786-0 renal): 95.6 µM
GI50 (HCC-2998 colon): 0.442 µM
TGI (HCC-2998 colon): > 100 µM
GI50 (HL-60(TB) leukemia): 0.195 µM
TGI (HL-60(TB) leukemia): 0.681 µM
GI50 (HOP-92 NSCLC): 0.0974 µM
TGI (HOP-92 NSCLC): 12 µM
GI50 (LOX IMVI melanoma): 0.272 µM
TGI (LOX IMVI melanoma): > 100 µM
GI50 (MOLT-4 leukemia): 0.388 µM
TGI (MOLT-4 leukemia): > 100 µM
GI50 (NCI-H226 lung): 12.8 µM
TGI (NCI-H226 lung): > 100 µM
GI50 (NCI-H522 lung): 0.0204 µM
TGI (NCI-H522 lung): 0.0564 µM
GI50 (OVCAR-8 ovarian): 0.276 µM
TGI (OVCAR-8 ovarian): > 100 µM
GI50 (SN12C renal): 0.682 µM
TGI (SN12C renal): > 100 µM

COc1cccc2c1C(=O)c1c(O)c3c(c(O)c1C2=O)C[C@@](O)(C(=O)CO)C[C@@H]3O[C@H]1C[C@H](N)[C@@H](O)[C@H](C)O1
GI50 (786-0 renal): 0.123 µM
TGI (786-0 renal): 1.86 µM
GI50 (HCC-2998 colon): 0.161 µM
TGI (HCC-2998 colon): 1.29 µM
GI50 (HL-60(TB) leukemia): 0.145 µM
TGI (HL-60(TB) leukemia): 1.01 µM
GI50 (HOP-92 NSCLC): 0.0743 µM
TGI (HOP-92 NSCLC): 0.697 µM
GI50 (LOX IMVI melanoma): 0.0826 µM
TGI (LOX IMVI melanoma): 2.57 µM
GI50 (MOLT-4 leukemia): 0.0326 µM
TGI (MOLT-4 leukemia): 0.285 µM
GI50 (NCI-H226 lung): 0.068 µM
TGI (NCI-H226 lung): 0.222 µM
GI50 (NCI-H522 lung): 0.101 µM
TGI (NCI-H522 lung): 0.89 µM
GI50 (OVCAR-8 ovarian): 0.256 µM
TGI (OVCAR-8 ovarian): 19.5 µM
GI50 (SN12C renal): 0.126 µM
TGI (SN12C renal): 11.9 µM

CN(C)C=[N+]=[N-]
TGI (786-0 renal): > 100 µM
TGI (HCC-2998 colon): > 100 µM
TGI (HL-60(TB) leukemia): > 100 µM
TGI (HOP-92 NSCLC): > 100 µM
TGI (MOLT-4 leukemia): > 100 µM
TGI (NCI-H226 lung): > 100 µM
TGI (NCI-H522 lung): > 100 µM
TGI (OVCAR-8 ovarian): > 100 µM
TGI (SN12C renal): > 100 µM

CC(C)c1c(O)ccc2c1CCC1C(C)(C)CCCC21C (stereo unspecified)
TGI (786-0 renal): 32.2 µM
TGI (HCC-2998 colon): 37.2 µM
TGI (HL-60(TB) leukemia): 52.3 µM
TGI (HOP-92 NSCLC): 32.8 µM
TGI (LOX IMVI melanoma): 31.1 µM
TGI (MOLT-4 leukemia): 43.3 µM
TGI (NCI-H226 lung): 33.6 µM
TGI (NCI-H522 lung): 34.6 µM
TGI (OVCAR-8 ovarian): 31.7 µM
TGI (SN12C renal): 27.8 µM

COc1ccc(CC(=O)NCCc2ccc(OC)c(OC)c2)cc1Br
TGI (786-0 renal): > 100 µM
TGI (HCC-2998 colon): > 100 µM
TGI (HL-60(TB) leukemia): > 100 µM
TGI (HOP-92 NSCLC): > 100 µM
TGI (LOX IMVI melanoma): > 100 µM
TGI (MOLT-4 leukemia): > 100 µM
TGI (NCI-H226 lung): > 100 µM
TGI (NCI-H522 lung): > 100 µM
TGI (OVCAR-8 ovarian): > 100 µM
TGI (SN12C renal): > 100 µM

CCCCCCCCCCC(C(O)c1ccccc1)N1CCCCC1 (stereo unspecified)
GI50 (786-0 renal): 1.78 µM
TGI (786-0 renal): 3.25 µM
GI50 (HCC-2998 colon): 1.61 µM
TGI (HCC-2998 colon): 3.07 µM
GI50 (HL-60(TB) leukemia): 1.96 µM
TGI (HL-60(TB) leukemia): 4.25 µM
GI50 (HOP-92 NSCLC): 1.82 µM
TGI (HOP-92 NSCLC): 3.83 µM
GI50 (LOX IMVI melanoma): 1.67 µM
TGI (LOX IMVI melanoma): 3.03 µM
GI50 (MOLT-4 leukemia): 2.23 µM
TGI (MOLT-4 leukemia): 5.86 µM
GI50 (NCI-H226 lung): 2.91 µM
TGI (NCI-H226 lung): 12.4 µM
GI50 (NCI-H522 lung): 1.94 µM
TGI (NCI-H522 lung): 3.91 µM
GI50 (OVCAR-8 ovarian): 3.29 µM
TGI (OVCAR-8 ovarian): 13 µM
GI50 (SN12C renal): 2.55 µM
TGI (SN12C renal): 10.4 µM

C=C(C)[C@@H]1CC[C@]2(C)[C@H](CC=C3[C@@H]4[C@@H](C)[C@H](C)CC[C@]4(C(N)=O)CC[C@]32C)[C@@]1(C)CCC#N
GI50 (786-0 renal): 2.26 µM
TGI (786-0 renal): 5.75 µM
GI50 (HCC-2998 colon): 4.8 µM
TGI (HCC-2998 colon): 18.8 µM
GI50 (HL-60(TB) leukemia): 2.35 µM
TGI (HL-60(TB) leukemia): 6.03 µM
GI50 (HOP-92 NSCLC): 2.57 µM
TGI (HOP-92 NSCLC): 9.05 µM
GI50 (LOX IMVI melanoma): 7.06 µM
TGI (LOX IMVI melanoma): 20.1 µM
GI50 (MOLT-4 leukemia): 2.92 µM
TGI (MOLT-4 leukemia): 21 µM
GI50 (NCI-H226 lung): 5.09 µM
TGI (NCI-H226 lung): 27 µM
GI50 (NCI-H522 lung): 3.56 µM
TGI (NCI-H522 lung): 50.9 µM
GI50 (OVCAR-8 ovarian): 5.38 µM
TGI (OVCAR-8 ovarian): 27.5 µM
GI50 (SN12C renal): 3.36 µM
TGI (SN12C renal): 10.7 µM

CCN1C(=O)N(c2ccccc2)C2NC(=S)N(/N=C/C=C/c3ccccc3)C21 (stereo unspecified)
GI50 (786-0 renal): 0.521 µM
TGI (786-0 renal): > 100 µM
GI50 (HCC-2998 colon): 0.399 µM
TGI (HCC-2998 colon): > 100 µM
GI50 (HL-60(TB) leukemia): 0.227 µM
TGI (HL-60(TB) leukemia): 0.745 µM
GI50 (HOP-92 NSCLC): 4.66 µM
TGI (HOP-92 NSCLC): > 100 µM
GI50 (LOX IMVI melanoma): 0.647 µM
TGI (LOX IMVI melanoma): > 100 µM
GI50 (MOLT-4 leukemia): 0.38 µM
TGI (MOLT-4 leukemia): > 100 µM
GI50 (NCI-H226 lung): 2.79 µM
TGI (NCI-H226 lung): > 100 µM
GI50 (NCI-H522 lung): 0.133 µM
TGI (NCI-H522 lung): 6.6 µM
GI50 (OVCAR-8 ovarian): 0.429 µM
TGI (OVCAR-8 ovarian): > 100 µM
GI50 (SN12C renal): 0.742 µM
TGI (SN12C renal): > 100 µM

COc1ccccc1N1CCN(CCc2c[nH]c3cc4c(cc23)OCO4)CC1
GI50 (786-0 renal): 32.4 µM
TGI (786-0 renal): > 100 µM
GI50 (HCC-2998 colon): 16.5 µM
TGI (HCC-2998 colon): 32.6 µM
GI50 (HL-60(TB) leukemia): 10.4 µM
TGI (HL-60(TB) leukemia): > 100 µM
GI50 (HOP-92 NSCLC): 14.3 µM
TGI (HOP-92 NSCLC): > 100 µM
GI50 (LOX IMVI melanoma): 11.6 µM
TGI (LOX IMVI melanoma): 35.7 µM
GI50 (MOLT-4 leukemia): 38.8 µM
TGI (MOLT-4 leukemia): > 100 µM
GI50 (NCI-H226 lung): 29.9 µM
TGI (NCI-H226 lung): > 100 µM
GI50 (NCI-H522 lung): 44.2 µM
TGI (NCI-H522 lung): > 100 µM
GI50 (OVCAR-8 ovarian): 42 µM
TGI (OVCAR-8 ovarian): > 100 µM
GI50 (SN12C renal): 23.5 µM
TGI (SN12C renal): > 100 µM

CN1C(=O)C(CC(=O)O)NC1=S (stereo unspecified)
TGI (786-0 renal): > 100 µM
TGI (HCC-2998 colon): > 100 µM
TGI (HL-60(TB) leukemia): > 100 µM
TGI (HOP-92 NSCLC): > 100 µM
TGI (LOX IMVI melanoma): > 100 µM
TGI (MOLT-4 leukemia): > 100 µM
TGI (NCI-H522 lung): > 100 µM
TGI (OVCAR-8 ovarian): > 100 µM
TGI (SN12C renal): > 100 µM

CCCC/C=C1\CCC(C)(CN(C)C)C1=O (stereo unspecified)
TGI (786-0 renal): > 100 µM
TGI (HCC-2998 colon): > 100 µM
TGI (HL-60(TB) leukemia): > 100 µM
TGI (HOP-92 NSCLC): > 100 µM
TGI (MOLT-4 leukemia): > 100 µM
TGI (NCI-H522 lung): 75.9 µM
TGI (OVCAR-8 ovarian): > 100 µM
TGI (SN12C renal): > 100 µM
